Measurements from patent publication US9873667B2, “Arylsulfanyl compounds and compositions for delivering active agents” (EMISPHERE TECHNOLOGIES INC., priority 2006, dated 2018).

Key:
[1] = tested on: Blood glucose levels; assay: Oral delivery of insulin with delivery agent compound; blood glucose by glucometer; assay type: in vivo, male Sprague-Dawley rats
Procedure: Insulin stock solution (15 mg/ml) (Human zinc insulin, Calbiochem-Novabiochem Corp., La Jolla, Calif.) was prepared with deionized water. Oral dosing compositions containing 200 mg/kg of delivery agent compound and 0.5 mg/kg of insulin in aqueous solution were prepared with the delivery agent compound shown in Table 1 below. Either the sodium salt of the delivery agent compound was used or the free acid was converted to the sodium salt with one equivalent of sodium hydroxide.
The dosing solution was administered to fasted male Sprague-Dawley rats by oral gavage with an average weight of about 225-250 grams. Blood glucose levels were then determined by glucometer (One Touch Ultra®, LifeScan, Inc.) and compared to vehicle control (1 ml/kg of water). Samples were collected prior to dosing (time 0) and at 15, 30, 45 and 60 minutes after dosing. The % glucose reduction values in Table 1 are values found at the C minimum, and are an average % reduction with respect to the number of times the experiment was run for each delivery agent.
0.5 mg/kg of Insulin and 25-100 mg/kg of delivery agent compound (particular amount shown in Table 2 below) was administered to male Sprague-Dawley rats with an average weight of about 225-250 grams. The purpose of this test was to ascertain the dose response of the delivery agent compound. Glucose reduction was determined as set forth in connection with the data in Table 1.
Insulin Titrations were performed with Delivery Agent 29 in order to gauge the effect of varying dosages of insulin.

[2] = tested on: activated partial thromboplastin time (APTT); assay: Intracolonic delivery of heparin with delivery agent; clotting time (APTT); assay type: in vivo, male Sprague-Dawley rats; conditions: Delivery Agent 50 mg/kg, USP Heparin 25 mg/kg; for Tmax: time of peak APTT
Procedure: Oral gavage and/or intracolonic (IC) dosing solutions containing delivery agent compound and heparin sodium USP were prepared in 25% aqueous propylene glycol. Either the sodium salt of the delivery agent compound was used or the free acid was converted to the sodium salt with one equivalent of sodium hydroxide. The delivery agent compound and heparin (about 166-182 IU/mg) were mixed by vortex as dry powders. This dry mixture was dissolved in 25% v/v aqueous propylene glycol, vortexed, and placed in a sonicator (about 37° C.). The pH was adjusted to about 7 (6.5-8.5) with aqueous NaOH (2N). The dosing solution was sonicated to produce a clear solution. The final volume was adjusted to about 3.0 ml.
Male Sprague-Dawley rats weighing between about 275-350 g were fasted for 24 hours and anesthetized with ketamine hydrochloride (88 mg/kg) intramuscularly immediately prior to dosing and again as needed to maintain anesthesia. A dosing group of five animals were administered one of the dosing solutions. For oral gavage dosing, an 11 cm Rusch 8 French catheter was adapted to a 1 ml syringe with a pipette tip. The syringe was filled with dosing solution by drawing the solution through the catheter, which was then wiped dry. The catheter was placed down the esophagus leaving 1 cm of tubing past the incisors. The dosing solution was administered by pressing the syringe plunger.
For intracolonic (IC) dosing, a 7.5 cm, 8 French Rusch catheter was adapted to a 1 ml syringe with a pipette tip. The dosing catheter was inserted into the colon through the anus until the tube was no longer visible. The dosing solution was expressed slowly into the colon by pressing the syringe plunger.
Citrated blood samples were collected by cardiac puncture following the administration of ketamine (88 mg/kg), typically at 0.25, 0.5, 1.0 and 1.5 hours after dosing. Heparin absorption was verified by an increase in clotting time measured by the activated partial thromboplastin time (APTT) according to the method of Henry, J. B., Clinical Diagnosis and Management by Laboratory Methods, Philadelphia, Pa., W.B. Saunders (1979), which is hereby incorporated by reference. Previous studies indicated baseline values of about 20 seconds. Results from the animals in each group were averaged for each time points and the highest of these averages (i.e. mean peak APTT) is reported.

[3] = Oral delivery of LHRH with delivery agent; plasma LHRH concentration; assay type: in vivo, male Sprague-Dawley rats; conditions: Delivery Agent: 200 mg/kg, LHRH: 1 mg/kg
Procedure: Oral gavage dosing solutions of delivery agent compound and LHRH in phosphate buffer were prepared by mixing. A solution of the delivery agent compound was made either with the sodium salt of the delivery agent compound or by converting the free acid to its sodium salt. A solution of the delivery agent compound was prepared in phosphate buffer and stirred, adding one equivalent of sodium hydroxide (1.0 N) when making the sodium salt. The final dosing solutions were prepared by mixing the delivery agent compound solution with a LHRH stock solution (2.75 ml with a concentration of 20 mg/ml in aqueous solution). The pH was adjusted, if necessary, to between about 7 and 8.8.
Male Sprague-Dawley rats weighing between about 250-300 g were fasted for 24 hours. A dosing group of five animals was administered one of the dosing solutions. An 11 cm Rusch 8 French catheter was adapted to a 1 ml syringe with a pipette tip. The syringe was filled with the dosing solution by drawing the solution through the catheter, which was then wiped dry. The catheter was placed down the esophagus leaving 1 cm of tubing past the incisors. The dosing solution was administered by pressing the syringe plunger.
Blood samples were collected through retroorbital bleeding of approximately 0.4 ml of blood volume using EDTA tubes at time=0 (pre-dose), 2, 10, 15 and 30 minutes. The five samples from each time period were pooled. Previous studies indicated baseline values of about zero. The maximum absorption at the Tmax is reported below in Table 7. As controls, 4-(3-methyl phenoxy) butyric acid (D.A. “B”), the mesylate salt of (4-(8-(2-hydroxyphenoxy)octyl) morpholine (D.A. “C”), 4-(4-(2-hydroxyphenoxy)butyl) morpholine (D.A. “D”), and 4-(6-(2-hydroxyphenoxy)hexyl) morpholine (D.A. “E”) were also administered according to the same protocol and their results are also shown in FIG. 6.

[4] = oral gavage, 200 mg/kg Delivery Agent Compound, 0.5 mg/kg Insulin, value at C minimum vs vehicle control

Structure (SMILES)	% Glucose Reduction [1, 4] [%]	melting point [°C]	also measured
O=C(O)CCCCSc1cccc(Cl)c1 [Compound 24, 5-(3-Chloro-phenylsulfanyl)-pentanoic acid]	−10.0 ± 17.7		
O=C(O)CCCSc1ccccc1O [Compound 12, 4-(2-Hydroxy-phenylsulfanyl)-butyric acid]		77 to 78	
O=C(O)CCCCCCCSc1ccc(Cl)cc1 [Compound 33, 8-(4-Chloro-phenylsulfanyl)-octanoic acid]		92 to 93	
O=C(O)CCCSc1cccc(Cl)c1 [Compound 29, 4-(3-Chloro-phenylsulfanyl)-butyric acid]			% Glucose Reduction ([1]; insulin titration, Delivery Agent 200 mg/kg, Dose of Insulin 0.00 mg/kg): −6.8%; % Glucose Reduction ([1]; insulin titration, Delivery Agent 200 mg/kg, Dose of Insulin 0.25 mg/kg): −31.4%; % Glucose Reduction ([1]; insulin titration, Delivery Agent 200 mg/kg, Dose of Insulin 0.50 mg/kg): −30.8%
COc1cccc(SCCCCCCCCCC(=O)O)c1 [Compound 20, 10-(3-Methoxy-phenylsulfanyl)-decanoic acid]	−33.9 ± 41.8		
Cc1ccc(C)c(SCC(=O)O)c1 [Compound 58, (2,5-Dimethyl-phenylsulfanyl)-acetic acid]	−18.2	73 to 74	
COc1ccc(SCC(=O)O)cc1 [Compound 13, (4-Methoxy-phenylsulfanyl)-acetic acid]	−18.2 ± 17.4		
Cc1ccc(C)c(SCCC(=O)O)c1 [Compound 9, 3-(2,5-Dimethyl-phenylsulfanyl)-propionic acid]		100 to 102	
O=C(O)CCCSc1ccc(F)cc1 [Compound 56]	−4.5 ± 11.1		
O=C(O)CSc1ccc(F)cc1 [Compound 55, (4-Fluoro-phenylsulfanyl)-acetic acid]	−20.9 ± 17.5		
O=C(O)CSc1cccc(F)c1 [Compound 51, (3-Fluoro-phenylsulfanyl)-acetic acid]	−24.9 ± 6.2		
O=C(O)CCCCCCCCCSc1ccccc1O [Compound 8, 10-(2-Hydroxy-phenylsulfanyl)-decanoic acid]		58 to 59	% Glucose Reduction ([1]; dose response, Delivery Agent Compound 25 mg/kg, Insulin 0.5 mg/kg): −9.7%; % Glucose Reduction ([1]; dose response, Delivery Agent Compound 50 mg/kg, Insulin 0.5 mg/kg): −30.5%
O=C(O)CSc1cc(Cl)ccc1Cl [Compound 40, (2,5-dichloro-phenylsulfanyl)-acetic acid]	−6.0 ± 17.5		
O=C(O)CCCSc1ccccc1F [Compound 54, 4-(2-Fluoro-phenylsulfanyl)-butyric acid]	−37.4 ± 26.0		
O=C(O)CCCCCSc1ccc(O)cc1 [Compound 35, 6-(4-Hydroxy-phenylsulfanyl)-hexanoic acid]		92 to 94	APTT (mean peak) [2]: 100.0 s; Tmax [2]: 30.0 min
O=C(O)CCCSc1cc(Cl)ccc1Cl [Compound 50, 4-(2,5-dichloro-phenylsulfanyl)-butyric acid]	−15.8 ± 10.6		
O=C(O)CCCCCSc1cccc(Cl)c1 [Compound 32, 6-(3-Chloro-phenylsulfanyl)-hexanoic acid]	−15.2 ± 28.9		

Structure (SMILES)	% Glucose Reduction [1, 4] [%]	melting point [°C]	also measured
COc1ccccc1SCCCCCCCCCC(=O)O [Compound 4, 10-(2-Methoxy-phenylsulfanyl)-decanoic acid]		65 to 66	Tmax [3]: 5 min
O=C(O)CSc1ccc(Cl)c(Cl)c1 [Compound 42, (3,4-dichloro-phenylsulfanyl)-acetic acid]	−22.1 ± 5.4		
COc1cccc(SCCCCCCCC(=O)O)c1 [Compound 22]	−3.7 ± 9.4		
O=C(O)CSc1cccc(O)c1 [Compound 46, (3-Hydroxy-phenylsulfanyl)-acetic acid]	0.3 ± 27.7		
COc1ccccc1SCCCCC(=O)O [Compound 19, 5-(2-Methoxy-phenylsulfanyl)-pentanoic acid]	−33.6 ± 32.4		
O=C(O)CCCCCCCSc1ccc(O)cc1 [Compound 11, 8-(4-Hydroxy-phenylsulfanyl)-octanoic acid]		94 to 95	APTT (mean peak) [2]: 300.0 s; Tmax [2]: 30.0 min
O=C(O)CCSc1cccc(Cl)c1 [Compound 45, 3-(3-Chloro-phenylsulfanyl)-propionic acid]	−6.5 ± 21.2		
O=C(O)CCSc1ccccc1Cl [Compound 44, 3-(2-Chloro-phenylsulfanyl)-propionic acid]	−7.8 ± 16.5		
COc1cccc(SCCCC(=O)O)c1 [Compound 27, 4-(3-Methoxy-phenylsulfanyl)-butyric acid]	−47.6 ± 17.4		
O=C(O)CCCSc1ccc(Cl)c(Cl)c1 [Compound 53, 4-(3,4-dichloro-phenylsulfanyl)-butyric acid]	−14.8 ± 7.0		
COc1ccc(SCCCCCCCC(=O)O)cc1 [Compound 10, 8-(4-Methoxy-phenylsulfanyl)-octanoic acid]		66 to 68	
COc1cccc(SCCCCCC(=O)O)c1 [Compound 21, 6-(3-Methoxy-phenylsulfanyl)-hexanoic acid]	−19.4 ± 6.6		
O=C(O)CCCCCSc1ccc(F)cc1 [Compound 57, 6-(4-Fluoro-phenylsulfanyl)-hexanoic acid]	−11.0 ± 15.7		
COc1ccccc1SCCCCCCC(=O)O [Compound 16, 7-(2-Methoxy-phenylsulfanyl)-heptanoic acid]	−38.9 ± 32.7		
O=C(O)CCCCSc1ccccc1Cl [Compound 25, 5-(2-Chloro-phenylsulfanyl)-pentanoic acid]	−16.0 ± 13.4		
O=C(O)CCCSc1ccc(Cl)cc1 [Compound 34, 4-(4-Chloro-phenylsulfanyl)-butyric acid]		100 to 101	
